Data taken from US9513294B2, “Megastokes amino-triazolyl-BODIPY compounds and applications to live neuron staining and human serum albumin FA1 drug site probing” (National University of Singapore, priority 2012, dated 2016).

Assay: Absorbance and fluorescence emission spectra (SpectraMax M2)
Assay type: physicochemical
Conditions: MK library, Table 5
How it was run: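 Absorbance and emission maxima measured on a SpectraMax M2 spectrophotometer, which also gave quantum yield data; analysis in GraphPrism.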

Q: What does the source list for CCOc1ccccc1CNC1=[N+]2C(=C(c3ccc(N)cc3)c3ccc(-n4cc(C5CCCC5)nn4)n3[B-]2(F)F)C=C1 [MK103-5]?
A: λmax Absorp.: 473 nm; λmax Emission: 564 nm

Q: With CCOc1ccccc1CNC1=[N+]2C(=C(c3ccc(N)cc3)c3ccc(-n4cc(CC5CCCCC5)nn4)n3[B-]2(F)F)C=C1 [MK103-8] as the compound, how does the “λmax Absorp.” value read?
A: Its value is 473 nm.

Q: What about the “λmax Emission” value of the same compound?
A: Its value is 563 nm.

Q: For CCOc1ccccc1CNC1=[N+]2C(=C(c3ccc(N)cc3)c3ccc(-n4cc(CN(C)Cc5ccccc5)nn4)n3[B-]2(F)F)C=C1 [MK103-18], which “λmax Absorp.” value is on record?
A: Its value is 473 nm.

Q: And the “λmax Emission” value?
A: Its value is 565 nm.

Q: With CCOc1ccccc1CNC1=[N+]2C(=C(c3ccc(N)cc3)c3ccc(-n4cc(CCc5ccccc5)nn4)n3[B-]2(F)F)C=C1 [MK103-19] as the compound, how does the “λmax Absorp.” value read?
A: Its value is 472 nm.

Q: What about the “λmax Emission” value of the same compound?
A: Its value is 568 nm.

Q: What does the source list for CCOc1ccccc1CNC1=[N+]2C(=C(c3ccc(N)cc3)c3ccc(-n4cc(CC(C)C)nn4)n3[B-]2(F)F)C=C1 [MK103-43]?
A: λmax Absorp.: 474 nm; λmax Emission: 563 nm

Q: What does the source list for CCCc1cn(-c2ccc3n2[B-](F)(F)[N+]2=C(NCc4ccccc4OCC)C=CC2=C3c2ccc(N)cc2)nn1 [MK103-48]?
A: λmax Absorp.: 473 nm; λmax Emission: 563 nm

Q: For CCCCCC(O)c1cn(-c2ccc3n2[B-](F)(F)[N+]2=C(NCc4ccccc4OCC)C=CC2=C3c2ccc(N)cc2)nn1 (stereo not drawn) [MK103-69], which “λmax Absorp.” value is on record?
A: The value was 474 nm.

Q: And the “λmax Emission” value?
A: Its value is 563 nm.

Q: Which “λmax Absorp.” value does the source give for CCOc1ccccc1CNC1=[N+]2C(=C(c3ccc(N)cc3)c3ccc(-n4cc(CO)nn4)n3[B-]2(F)F)C=C1 [MK103-70] here?
A: Its value is 472 nm.

Q: What about the “λmax Emission” value of the same compound?
A: Its value is 562 nm.

Q: With CCCC(C)c1cn(-c2ccc3n2[B-](F)(F)[N+]2=C(NCc4cc(OC)ccc4OC)C=CC2=C3c2ccc(N)cc2)nn1 (stereo not drawn) [MK181-3] as the compound, how does the “λmax Absorp.” value read?
A: The value was 473 nm.

Q: What about the “λmax Emission” value of the same compound?
A: The value was 565 nm.

Q: For COc1ccc(OC)c(CNC2=[N+]3C(=C(c4ccc(N)cc4)c4ccc(-n5cc(C6CC6)nn5)n4[B-]3(F)F)C=C2)c1 [MK181-4], which “λmax Absorp.” value is on record?
A: The value was 474 nm.

Q: What about the “λmax Emission” value of the same compound?
A: The value was 566 nm.

Q: Which results are given for COc1ccc(OC)c(CNC2=[N+]3C(=C(c4ccc(N)cc4)c4ccc(-n5cc(C6CCCC6)nn5)n4[B-]3(F)F)C=C2)c1 [MK181-5]?
A: λmax Absorp.: 475 nm; λmax Emission: 563 nm

Q: Which results are given for COc1ccc(OC)c(CNC2=[N+]3C(=C(c4ccc(N)cc4)c4ccc(-n5cc(CC6CCCCC6)nn5)n4[B-]3(F)F)C=C2)c1 [MK181-8]?
A: λmax Absorp.: 474 nm; λmax Emission: 565 nm

Q: Which “λmax Absorp.” value does the source give for COc1ccc(OC)c(CNC2=[N+]3C(=C(c4ccc(N)cc4)c4ccc(-n5cc(CN(C)Cc6ccccc6)nn5)n4[B-]3(F)F)C=C2)c1 [MK181-18] here?
A: The value was 473 nm.

Q: And the “λmax Emission” value?
A: The value was 563 nm.

Q: With COc1ccc(OC)c(CNC2=[N+]3C(=C(c4ccc(N)cc4)c4ccc(-n5cc(CCc6ccccc6)nn5)n4[B-]3(F)F)C=C2)c1 [MK181-19] as the compound, how does the “λmax Absorp.” value read?
A: Its value is 474 nm.

Q: And the “λmax Emission” value?
A: The value was 564 nm.

Q: For COc1ccc(OC)c(CNC2=[N+]3C(=C(c4ccc(N)cc4)c4ccc(-n5cc(CC(C)C)nn5)n4[B-]3(F)F)C=C2)c1 [MK181-43], which “λmax Absorp.” value is on record?
A: The value was 475 nm.

Q: What about the “λmax Emission” value of the same compound?
A: Its value is 566 nm.

Q: Which results are given for CCCc1cn(-c2ccc3n2[B-](F)(F)[N+]2=C(NCc4cc(OC)ccc4OC)C=CC2=C3c2ccc(N)cc2)nn1 [MK181-48]?
A: λmax Absorp.: 473 nm; λmax Emission: 563 nm

Q: For CCCCCC(O)c1cn(-c2ccc3n2[B-](F)(F)[N+]2=C(NCc4cc(OC)ccc4OC)C=CC2=C3c2ccc(N)cc2)nn1 (stereo not drawn) [MK181-69], which “λmax Absorp.” value is on record?
A: Its value is 473 nm.

Q: What about the “λmax Emission” value of the same compound?
A: The value was 563 nm.

Q: With COc1ccc(OC)c(CNC2=[N+]3C(=C(c4ccc(N)cc4)c4ccc(-n5cc(CO)nn5)n4[B-]3(F)F)C=C2)c1 [MK181-70] as the compound, how does the “λmax Absorp.” value read?
A: Its value is 472 nm.

Q: And the “λmax Emission” value?
A: The value was 568 nm.

Q: For CCCC(C)c1cn(-c2ccc3n2[B-](F)(F)[N+]2=C(N(C)Cc4ccccc4)C=CC2=C3c2ccc(N)cc2)nn1 (stereo not drawn) [MK195-3], which “λmax Absorp.” value is on record?
A: The value was 476 nm.

Q: And the “λmax Emission” value?
A: The value was 564 nm.

Q: Which results are given for CN(Cc1ccccc1)C1=[N+]2C(=C(c3ccc(N)cc3)c3ccc(-n4cc(C5CC5)nn4)n3[B-]2(F)F)C=C1 [MK195-4]?
A: λmax Absorp.: 476 nm; λmax Emission: 566 nm

Q: For CN(Cc1ccccc1)C1=[N+]2C(=C(c3ccc(N)cc3)c3ccc(-n4cc(C5CCCC5)nn4)n3[B-]2(F)F)C=C1 [MK195-5], which “λmax Absorp.” value is on record?
A: The value was 477 nm.

Q: And the “λmax Emission” value?
A: The value was 579 nm.

Assay: Quantum yield measurements versus Acridine Yellow in EtOH
Assay type: physicochemical
Conditions: MK library, Table 5; excitation 460 nm
How it was run: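 Fluorescence quantum yield is relative to Acridine Yellow in EtOH (Φ 0.47), with excitation at 460 nm. Integrated emission at 510–700 nm was corrected for absorbance at the excitation wavelength and for solvent refractive index.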

Q: For CCOc1ccccc1CNC1=[N+]2C(=C(c3ccc(N)cc3)c3ccc(-n4cc(C5CCCC5)nn4)n3[B-]2(F)F)C=C1 [MK103-5], which “φ (quantum yield)” value is on record?
A: Its value is 2.01%.

Q: With CCOc1ccccc1CNC1=[N+]2C(=C(c3ccc(N)cc3)c3ccc(-n4cc(CC5CCCCC5)nn4)n3[B-]2(F)F)C=C1 [MK103-8] as the compound, how does the “φ (quantum yield)” value read?
A: The value was 1.64%.

Q: With CCOc1ccccc1CNC1=[N+]2C(=C(c3ccc(N)cc3)c3ccc(-n4cc(CN(C)Cc5ccccc5)nn4)n3[B-]2(F)F)C=C1 [MK103-18] as the compound, how does the “φ (quantum yield)” value read?
A: The value was 1.19%.

Q: With CCOc1ccccc1CNC1=[N+]2C(=C(c3ccc(N)cc3)c3ccc(-n4cc(CCc5ccccc5)nn4)n3[B-]2(F)F)C=C1 [MK103-19] as the compound, how does the “φ (quantum yield)” value read?
A: The value was 1.96%.

Q: Which “φ (quantum yield)” value does the source give for CCOc1ccccc1CNC1=[N+]2C(=C(c3ccc(N)cc3)c3ccc(-n4cc(CC(C)C)nn4)n3[B-]2(F)F)C=C1 [MK103-43] here?
A: Its value is 1.30%.

Q: Which “φ (quantum yield)” value does the source give for CCCc1cn(-c2ccc3n2[B-](F)(F)[N+]2=C(NCc4ccccc4OCC)C=CC2=C3c2ccc(N)cc2)nn1 [MK103-48] here?
A: The value was 1.91%.

Q: For CCCCCC(O)c1cn(-c2ccc3n2[B-](F)(F)[N+]2=C(NCc4ccccc4OCC)C=CC2=C3c2ccc(N)cc2)nn1 (stereo not drawn) [MK103-69], which “φ (quantum yield)” value is on record?
A: The value was 2.28%.

Q: Which “φ (quantum yield)” value does the source give for CCOc1ccccc1CNC1=[N+]2C(=C(c3ccc(N)cc3)c3ccc(-n4cc(CO)nn4)n3[B-]2(F)F)C=C1 [MK103-70] here?
A: Its value is 1.93%.

Q: With CCCC(C)c1cn(-c2ccc3n2[B-](F)(F)[N+]2=C(NCc4cc(OC)ccc4OC)C=CC2=C3c2ccc(N)cc2)nn1 (stereo not drawn) [MK181-3] as the compound, how does the “φ (quantum yield)” value read?
A: Its value is 0.36%.

Q: With COc1ccc(OC)c(CNC2=[N+]3C(=C(c4ccc(N)cc4)c4ccc(-n5cc(C6CC6)nn5)n4[B-]3(F)F)C=C2)c1 [MK181-4] as the compound, how does the “φ (quantum yield)” value read?
A: The value was 0.28%.

Q: Which “φ (quantum yield)” value does the source give for COc1ccc(OC)c(CNC2=[N+]3C(=C(c4ccc(N)cc4)c4ccc(-n5cc(C6CCCC6)nn5)n4[B-]3(F)F)C=C2)c1 [MK181-5] here?
A: Its value is 0.43%.

Q: With COc1ccc(OC)c(CNC2=[N+]3C(=C(c4ccc(N)cc4)c4ccc(-n5cc(CC6CCCCC6)nn5)n4[B-]3(F)F)C=C2)c1 [MK181-8] as the compound, how does the “φ (quantum yield)” value read?
A: The value was 0.33%.

Q: For COc1ccc(OC)c(CNC2=[N+]3C(=C(c4ccc(N)cc4)c4ccc(-n5cc(CN(C)Cc6ccccc6)nn5)n4[B-]3(F)F)C=C2)c1 [MK181-18], which “φ (quantum yield)” value is on record?
A: Its value is 0.52%.

Q: Which “φ (quantum yield)” value does the source give for COc1ccc(OC)c(CNC2=[N+]3C(=C(c4ccc(N)cc4)c4ccc(-n5cc(CCc6ccccc6)nn5)n4[B-]3(F)F)C=C2)c1 [MK181-19] here?
A: Its value is 0.85%.

Q: With COc1ccc(OC)c(CNC2=[N+]3C(=C(c4ccc(N)cc4)c4ccc(-n5cc(CC(C)C)nn5)n4[B-]3(F)F)C=C2)c1 [MK181-43] as the compound, how does the “φ (quantum yield)” value read?
A: Its value is 0.37%.

Q: For CCCc1cn(-c2ccc3n2[B-](F)(F)[N+]2=C(NCc4cc(OC)ccc4OC)C=CC2=C3c2ccc(N)cc2)nn1 [MK181-48], which “φ (quantum yield)” value is on record?
A: The value was 0.50%.

Q: For CCCCCC(O)c1cn(-c2ccc3n2[B-](F)(F)[N+]2=C(NCc4cc(OC)ccc4OC)C=CC2=C3c2ccc(N)cc2)nn1 (stereo not drawn) [MK181-69], which “φ (quantum yield)” value is on record?
A: Its value is 0.86%.

Q: For COc1ccc(OC)c(CNC2=[N+]3C(=C(c4ccc(N)cc4)c4ccc(-n5cc(CO)nn5)n4[B-]3(F)F)C=C2)c1 [MK181-70], which “φ (quantum yield)” value is on record?
A: Its value is 0.88%.

Q: Which “φ (quantum yield)” value does the source give for CCCC(C)c1cn(-c2ccc3n2[B-](F)(F)[N+]2=C(N(C)Cc4ccccc4)C=CC2=C3c2ccc(N)cc2)nn1 (stereo not drawn) [MK195-3] here?
A: Its value is 0.46%.

Q: Which “φ (quantum yield)” value does the source give for CN(Cc1ccccc1)C1=[N+]2C(=C(c3ccc(N)cc3)c3ccc(-n4cc(C5CC5)nn4)n3[B-]2(F)F)C=C1 [MK195-4] here?
A: The value was 0.34%.

Q: Which “φ (quantum yield)” value does the source give for CN(Cc1ccccc1)C1=[N+]2C(=C(c3ccc(N)cc3)c3ccc(-n4cc(C5CCCC5)nn4)n3[B-]2(F)F)C=C1 [MK195-5] here?
A: Its value is 0.39%.
